Source: ChEMBL document CHEMBL2157997, “β-D-2'-α-F-2'-β-C-Methyl-6-O-substituted 3',5'-cyclic phosphate nucleotide prodrugs as inhibitors of hepatitis C virus replication: a structure-activity relationship study” (Bioorg Med Chem Lett, 2012)
Each block holds one compound with its values, some of them ahead of it.

Key:
[1] = Half life in simulated intestinal fluid; type: physicochemical
[2] = Half life in rat plasma; type: ADME, cell-free
[3] = Half life in human plasma; type: ADME, cell-free
Huh-7 [4] = experiment: Prodrug activation in human HuH7 cells infected with HCV genotype 1b assessed as Tmax of beta-D-2'-deoxy-2'-alpha-fluoro-2'-beta-C-methylguanosine triphosphate level at 100 uM; type: cell-based; details: huh-7, 100 µM
[5] = Half life in simulated gastric fluid; type: physicochemical
[6] = Half life in human liver S9 fraction; type: ADME, subcellular
Hepatocyte = experiment: Prodrug activation in human primary hepatocytes assessed as assessed as Tmax of beta-D-2'-deoxy-2'-alpha-fluoro-2'-beta-C-methylguanosine triphosphate level at 100 uM; type: cell-based, Liver
Hepatitis C virus [7] = experiment: Antiviral activity against Hepatitis C virus genotype 1b replicon infected in Lunet cells by luciferase reporter gene assay; type: functional, Hepacivirus hominis
[8] = Cytotoxicity against human HuH7 cells; type: cell-based; details: Huh-7 cells
Hepatitis C virus [9] = experiment: Antiviral activity against Hepatitis C virus genotype 1b replicon infected in clone A cells assessed as inhibition of viral replication by RT-PCR analysis; type: functional, Hepacivirus hominis
HepG2 [10] = experiment: Mitochondrial toxicity against human HepG2 cells assessed as decrease in ribosomal DNA up to 100 uM after 14 days by RT-PCR analysis; type: cell-based; details: hepg2, 336 h
Rattus norvegicus [11] = experiment: Prodrug activation in rat liver assessed as beta-D-2'-deoxy-2'-alpha-fluoro-2'-beta-C-methylguanosine diphosphate level at 40 mg/kg, po administered QD as repeated dose measured at 4 hrs post-dosing on day 8; type: organism-based; design: dose 40 mg/kg, route oral; details: in vivo
[12] = AUC (infinity) in rat at 40 mg/kg, po administered QD measured after 1 day; type: ADME, organism-based; design: time infinity, dose 40 mg/kg, route oral; details: plasma
BXPC-3 = experiment: Cytotoxicity against human BxPC3 cells up to 100 uM after 8 days by MTT assay; type: cell-based; details: bxpc-3, 192 h
Rattus norvegicus [13] = experiment: Prodrug activation in rat liver assessed as beta-D-2'-deoxy-2'-alpha-fluoro-2'-beta-C-methylguanosine monophosphate level at 40 mg/kg, po administered QD as repeated dose measured at 4 hrs post-dosing on day 8; type: organism-based; design: dose 40 mg/kg, route oral; details: in vivo
[14] = Tmax in rat at 40 mg/kg, po administered QD measured after 1 day; type: ADME, organism-based; design: dose 40 mg/kg, route oral; details: in vivo
[15] = Cmax in rat at 40 mg/kg, po administered QD measured after 1 day; type: ADME, organism-based; design: dose 40 mg/kg, route oral; details: in vivo
Huh-7 [16] = experiment: Cytotoxicity against human HuH7 cells up to 100 uM after 8 days by MTT assay; type: cell-based; details: huh-7, 192 h
Rattus norvegicus [17] = experiment: Prodrug activation in rat liver assessed as total nucleotide level at 40 mg/kg, po administered QD as repeated dose measured at 4 hrs post-dosing on day 8; type: organism-based; design: dose 40 mg/kg, route oral; details: in vivo
CCRF-CEM [18] = experiment: Mitochondrial toxicity against human CEM cells assessed as decrease in mitochondrial COX2 DNA up to 100 uM after 14 days by RT-PCR analysis; type: cell-based; details: 336 h
CCRF-CEM [19] = experiment: Cytotoxicity against human CEM cells up to 100 uM after 8 days by MTT assay; type: cell-based; details: 192 h
[20] = Half life in rat at 40 mg/kg, po administered QD measured after 1 day; type: ADME, organism-based; design: dose 40 mg/kg, route oral; details: in vivo
Rattus norvegicus [21] = experiment: Tlast in rat at 40 mg/kg, po administered QD measured after 7 days; type: ADME, organism-based; design: dose 40 mg/kg, route oral; details: in vivo, 168 h
[22] = Cmax in rat at 40 mg/kg, po administered QD measured after 7 days; type: ADME, organism-based; design: dose 40 mg/kg, route oral; details: in vivo
CCRF-CEM [23] = experiment: Mitochondrial toxicity against human CEM cells assessed as decrease in ribosomal DNA up to 100 uM after 14 days by RT-PCR analysis; type: cell-based; details: 336 h
[24] = AUClast in rat at 40 mg/kg, po administered QD measured after 1 day; type: ADME, organism-based; design: dose 40 mg/kg, route oral; details: plasma
[25] = AUClast in rat at 40 mg/kg, po administered QD measured after 7 days; type: ADME, organism-based; design: dose 40 mg/kg, route oral; details: plasma
[26] = Half life in rat at 40 mg/kg, po administered QD measured after 7 days; type: ADME, organism-based; design: dose 40 mg/kg, route oral; details: in vivo
Rattus norvegicus [27] = experiment: Prodrug activation in rat liver assessed as free nucleoside level at 40 mg/kg, po administered QD as repeated dose measured at 4 hrs post-dosing on day 8; type: organism-based; design: dose 40 mg/kg, route oral; details: in vivo
HepG2 [28] = experiment: Mitochondrial toxicity against human HepG2 cells assessed as decrease in mitochondrial COX2 DNA up to 100 uM after 14 days by RT-PCR analysis; type: cell-based; details: hepg2, 336 h
Rattus norvegicus [29] = experiment: Prodrug conversion in rat liver assessed as beta-D-2'-deoxy-2'-alpha-fluoro-2'-beta-C-methylguanosine triphosphate level at 40 mg/kg, po administered QD as repeated dose measured at 4 hrs post-dosing on day 8; type: ADME, organism-based; design: dose 40 mg/kg, route oral; details: in vivo
Hepatitis C virus [30] = experiment: Antiviral activity against Hepatitis C virus expressing NS5B S282T mutant by cell-based replicon assay; type: functional, Hepacivirus hominis
HepG2 [31] = experiment: Cytotoxicity against human HepG2 cells up to 100 uM after 8 days by MTT assay; type: cell-based; details: hepg2, 192 h
[32] = AUC (infinity) in rat at 40 mg/kg, po administered QD measured after 7 days; type: ADME, organism-based; design: time infinity, dose 40 mg/kg, route oral; details: plasma
Rattus norvegicus [33] = experiment: Tlast in rat at 40 mg/kg, po administered QD measured after 1 day; type: ADME, organism-based; design: dose 40 mg/kg, route oral; details: in vivo, 24 h
[34] = Tmax in rat at 40 mg/kg, po administered QD measured after 7 days; type: ADME, organism-based; design: dose 40 mg/kg, route oral; details: in vivo

half-life [1]: > 20 h
EC90 (Hepatitis C virus [7]): 25.8 nM
half-life [2]: 5.6 h
half-life [3]: > 24 h
EC90 (Hepatitis C virus [9]): 680 nM
half-life [5]: > 20 h
half-life [6]: > 24 h
SMILES: COc1nc(N)nc2c1ncn2[C@@H]1O[C@@H]2COP(=O)(OC(C)C)O[C@H]2[C@@]1(C)F (stereo partly specified)
CC90 [8]: > 100000 nM

EC90 (Hepatitis C virus [7]): 70 nM
SMILES: COc1nc(N)nc2c1ncn2[C@@H]1O[C@@H]2COP(=O)(OCc3ccccc3)O[C@H]2[C@@]1(C)F (stereo partly specified)
CC90 [8]: > 10000 nM

EC90 (Hepatitis C virus [7]): 180 nM
SMILES: COc1nc(N)nc2c1ncn2[C@@H]1O[C@@H]2COP(=O)(O)O[C@H]2[C@@]1(C)F
CC90 [8]: > 100000 nM

half-life [1]: 4.2 h
EC90 (Hepatitis C virus [7]): 50 nM
half-life [2]: 8.6 h
half-life [3]: 11.7 h
EC90 (Hepatitis C virus [9]): 224 nM
half-life [5]: 2.6 h
half-life [6]: 6.3 h
SMILES: CC(C)Oc1nc(N)nc2c1ncn2[C@@H]1O[C@@H]2COP(=O)(OC3CCC3)O[C@H]2[C@@]1(C)F (stereo partly specified)
CC90 [8]: > 100000 nM

Continued, compound first:

SMILES: COc1nc(N)nc2c1ncn2[C@@H]1O[C@H](COP(=O)(N[C@@H](C)C(=O)OC(C)C)Oc2ccccc2)[C@@H](O)[C@@]1(C)F (stereo partly specified)
half-life [1]: > 20 h
half-life [2]: < 0.02 h
half-life [3]: > 24 h
Tmax (Huh-7 [4]): 24 h
half-life [5]: 16 h
half-life [6]: 0.44 h
Tmax (Hepatocyte): 8 h

SMILES: CCOP1(=O)OC[C@H]2O[C@@H](n3cnc4c(OC)nc(N)nc43)[C@](C)(F)[C@@H]2O1 (stereo partly specified)
EC90 (Hepatitis C virus [7]): 35.8 nM
CC90 [8]: > 10000 nM

SMILES: CC(C)Oc1nc(N)nc2c1ncn2[C@@H]1O[C@@H]2COP(=O)(OC3CCCC3)O[C@H]2[C@@]1(C)F (stereo partly specified)
Activity (HepG2 [10]): Non-toxic
Drug metabolism (Rattus norvegicus [11]): 17.61 nmol/g
AUC(0-inf) [12]: 770 ng·h/mL
Activity (BXPC-3): Non-toxic
half-life [1]: 15 h
Drug metabolism (Rattus norvegicus [13]): 20.85 nmol/g
EC90 (Hepatitis C virus [7]): 60 nM
Tmax [14]: 3.67 h
Cmax [15]: 80 ng/mL
Activity (Huh-7 [16]): Non-toxic
Drug metabolism (Rattus norvegicus [17]): 40.5 nmol/g
Activity (CCRF-CEM [18]): Non-toxic
half-life [2]: > 24 h
Activity (CCRF-CEM [19]): Non-toxic
half-life [3]: > 23.4 h
half-life [20]: 2.83 h
CC90 [8]: > 100000 nM
Tlast (Rattus norvegicus [21]): 8 h
Cmax [22]: 50 ng/mL
Activity (CCRF-CEM [23]): Non-toxic
Tmax (Huh-7 [4]): 72 h
EC90 (Hepatitis C virus [9]): 184 nM
AUC(0-t) at 24 h [24]: 340 ng·h/mL
AUC(0-t) at 168 h [25]: 170 ng·h/mL
half-life [26]: 3.32 h
Drug metabolism (Rattus norvegicus [27]): 7.47 nmol/g
half-life [5]: 9 h
Activity (HepG2 [28]): Non-toxic
Drug metabolism (Rattus norvegicus [29]): 2.02 nmol/g
EC90 (Hepatitis C virus [30]): 23 nM
Activity (HepG2 [31]): Non-toxic
AUC(0-inf) [32]: 210 ng·h/mL
half-life [6]: > 24 h
Tmax (Hepatocyte): 24 h
Tlast (Rattus norvegicus [33]): 10.7 h
Tmax [34]: 2.33 h

SMILES: CC(C)Oc1nc(N)nc2c1ncn2[C@@H]1O[C@@H]2COP(=O)(OC3CCCCC3)O[C@H]2[C@@]1(C)F (stereo partly specified)
EC90 (Hepatitis C virus [7]): 300 nM
